Experimental data from patent publication US20200231638A1, “STABILIZED ANTI-MICROBIAL PEPTIDES” (priority 2015, published 2020).
Values after ≈ are worked out from the molar mass of the structure shown. Bridge positions count the residues as written; N and C are the ends. Square brackets hold non-standard residues; d marks the D form. Peptide text beside a SMILES is read from it. R8 = C=CCCCCCC[C@@](C)(N)C(=O)O; S5 = C=CCCC[C@](C)(N)C(=O)O; Nle = CCCC[C@H](N)C(=O)O

How the values were obtained:
S. aureus = format: cell-based, Staphylococcus aureus
In short: (§1)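 Microdilution MIC test in polyanion-depleted MHB, with a final inoculum of 5×10^5 CFU/ml and 20-24 h incubation at 37° C.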

P. aeruginosa = format: cell-based, Pseudomonas aeruginosa
In short: as §1

human red blood cells = format: cell-based
In short: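 Hemolysis expressed as absorbance of released hemoglobin (570 nm) normalized between untreated and 1% Triton-X100 controls, with MHC taken as peptide concentration giving under 1% release. Peptide dilutions were exposed for 1 h at 37° C to a 1% (v/v) suspension of washed human red cells in PBS.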

E. coli = format: cell-based, Escherichia coli
In short: as §1

B. cereus = format: cell-based, Bacillus cereus
In short: as §1

[1] = Circular dichroism spectroscopy (α-helicity); format: physicochemical
Procedure: To determine the helicity of the panel of stapled magainin II analogues, the peptides were dissolved in water using CD spectroscopy in the presence and absence of trifluoroethanol (TFE; 50% v/v), a helix-promoting solvent. […] Levels of helicity ranged from approximately 34% for MagStap 2 to 100% for MagStap 1 and 3, as compared to an idealized α-helical peptide. […] When the helicity in the presence of TFE was measured, most of the stapled analogues were 50-60% helical except for MagStap 3, which retained 100% α-helical content.
Circular Dichroism Spectroscopy:
Compounds were dissolved in an aqueous solution (e.g. 5 mM potassium phosphate solution at pH 7, or distilled H2O, to concentrations of 25-50 μM). Circular dichroism (CD) spectra were obtained on a spectropolarimeter (Aviv) using standard measurement parameters (e.g., temperature, 37° C.; wavelength, 190-260 nm; step resolution, 0.5 nm; speed, 20 nm/sec; accumulations, 10; response, 1 sec; bandwidth, 1 nm; path length, 0.1 cm). The α-helical content of each peptide was calculated by dividing the mean residue ellipticity by the reported value for a model helical decapeptide (see, e.g., Yang et al., Meth Enzymol. 130:208 (1986)).

S. marcescens = format: cell-based
Procedure: Antimicrobial Activity Assay:
The following microbroth dilution protocol was adapted to determine the minimum inhibitory concentration (MIC) of each peptide. First, Mueller-Hinton broth (MHB) was passed through an anion exchange column to remove polyanionic species and generate refined MHB. […] Briefly, bacterial cells was grown overnight in refined MHB at 37° C. and then diluted and allowed to grow again for several hours. Serial dilutions of peptide stocks in water (10 μl) were prepared using clear round-bottom polypropylene 96-well plates. Then 90 μl of bacteria in refined MHB was added to give a final inoculum of 5×10^5 CFU/ml. The plates were then covered with porous tape to reduce evaporation, and incubated for 20-24 hours at 37° C. The MIC is the minimum peptide concentration at which no visible growth was observed.

Structure (SMILES)	MIC S. aureus (S. aureus) [µg/mL]	MIC P. aeruginosa (P. aeruginosa) [µg/mL]	hemolytic activity (in words) (human red blood cells)	MIC E. coli (E. coli) [µg/mL]	MIC B. cereus (B. cereus) [µg/mL]	α-helicity by CD in the presence of TFE ([1]; TFE 50% v/v)	MIC S. marcescens (S. marcescens) [µg/mL]	α-helicity by CD in water, absence of TFE ([1]; aqueous solution, no TFE)
CC[C@H](C)[C@H](NC(=O)CN)C(=O)NCC(=O)N[C@@H](CCCCN)C(=O)N[C@@H](Cc1ccccc1)C(=O)N[C@@H](CC(C)C)C(=O)N[C@@H](CCCCN)C(=O)N[C@@H](CCCCN)C(=O)N[C@@H](C)C(=O)N[C@@H](CCCCN)C(=O)N[C@]1(C)CCCCCCC=CCCC[C@@](C)(C(=O)N[C@H](C(=O)N[C@@H](CC(C)C)C(=O)N[C@@H](CCCCN)C(=O)N[C@@H](CCCCN)C(N)=O)[C@@H](C)CC)NC(=O)[C@H](C(C)C)NC(=O)[C@H](Cc2ccccc2)NC(=O)[C@H](C)NC(=O)[C@H](CCCCN)NC(=O)CNC(=O)[C@H](Cc2ccccc2)NC1=O [PexStap 5] (H-GIGKFLKKAK[R8]FGKAFV[S5]ILKK-NH2; staple 11-18; N-terminus assumed)	3.1 (≈ 1.23 µM)	1.6 (≈ 0.637 µM)	higher levels of hemolytic activity when compared to PexStap2 and PexStap6	1.6 (≈ 0.637 µM)	1.6 (≈ 0.637 µM)	around 83%	>50	–
CCCC[C@H](NC(=O)[C@@H](NC(=O)[C@H](CCC(=O)O)NC(=O)[C@H](C)NC(=O)[C@@H](NC(=O)[C@H](Cc1ccccc1)NC(=O)[C@]1(C)CCCC=CCCCCCC[C@@](C)(NC(=O)[C@H](Cc2c[nH]cn2)NC(=O)[C@H](CC(C)C)NC(=O)[C@H](Cc2ccccc2)NC(=O)[C@H](CCCCN)NC(=O)CNC(=O)[C@@H](NC(=O)CN)[C@@H](C)CC)C(=O)N[C@@H](C)C(=O)N[C@@H](CCCCN)C(=O)N[C@@H](CCCCN)C(=O)N[C@@H](Cc2ccccc2)C(=O)N[C@@H](C)C(=O)N[C@@H](CCCCN)C(=O)N1)C(C)C)[C@@H](C)CC)C(=O)N[C@@H](CC(N)=O)C(=O)N[C@@H](CO)C(N)=O [MagStap 2] (H-GIGKFLH[R8]AKKFAK[S5]FVAEI[Nle]NS-NH2; staple 8-15; N-terminus assumed)	–	–	–	3.1 (≈ 1.19 µM)	3.1 (≈ 1.19 µM)	–	>50	approximately 34%
